Test results: US9358272B2, “Multicomponent compositions and their uses” (THE ADMINISTRATORS OF THE TULANE EDUCATIONAL FUND, priority 2011, dated 2016)
Where a SMILES comes first, the peptide text is derived from it. [ ]: non-standard residue; d: D form. The star is where a group is joined. Nle = CCCC[C@H](N)C(=O)O; Cbz = O=C(OCc1ccccc1)*

Columns and labels:
[1] = system: pancreatic carcinoid BON cells; experiment: Cell proliferation assay (MTT), BON cells; type: cell-based, Human; details: single agents and combinations, 2.5 mM VPA or 10 uM SBHA in FIGS. 20, 23
[2] = system: small cell lung cancer DMS-53 cells; experiment: Cell proliferation assay (MTT), DMS-53 cells; type: cell-based; details: single agents and combinations, 2.5 mM VPA or 10 uM SBHA in FIGS. 21, 24
[3] = system: cervical cancer Hela cells; experiment: Cell proliferation assay (MTT), cervical cancer Hela cells; type: cell-based, Human; details: single agents and combinations, VPA 2.5 mM in FIGS. 19, 22
[4] = system: colonrectal cancer HT-29 cells; experiment: Cell proliferation assay (MTT), HT-29 cells; type: cell-based, Human; details: single agents and combinations
Experimental: (§1) Cell Proliferation Assay (MTT)
(§2) The cell proliferation assay was performed as described previously in Sun et al., Bioorg Med Chem Lett, 2004, Vol. 14, pp. 2041-2046. Briefly, 50 μl aliquots of medium with different concentrations of compounds were added to 96-well plates. All compound concentrations were tested in triplicate. Another 50 μl of the cell stock (1×10^5 cells/ml of media) was dispensed into each test well and the plates were incubated at 37° C. in a CO2 incubator for 3 days. Following the incubation period, 15 μl of the dye solution was added to each well and the plates were then incubated at 37° C. for 4 hours, followed by the addition of 100 μl per well of the solubilization solution. The plates were incubated at 37° C. until the contents in each well became a uniform-colored solution. The absorbance was measured and recorded at 570 nm by a Victor Plate Reader.
(§3) The cell proliferation assay (Promega, Madison, Wis.) was performed as described in Sun et al., Bioorg Med Chem Lett, 2004, Vol. 14, pp. 2041-2046. The absorbance was measured and recorded at 570 nm by a Victor Plate Reader (PerkinElmer, Boston, Mass.).

[5] = system: pancreatic cancer CFPAC-1 cells; experiment: Cell proliferation assay (MTT), CFPAC-1 cells; type: cell-based, Human; details: single agents and combinations
Experimental: as §1, §2, §3

[6] = system: ovarian cancer OVCAR8 cells; experiment: Cell proliferation assay (MTT), OVCAR8 cells; type: cell-based, Human; details: single agents and combinations
Experimental: as §1, §2, §3

[7] = system: cAMP production in Hela-ICN1 cells; experiment: Fluorescence polarization (FP) cAMP assay, Hela-ICN1 cells; type: cell-based, Human; details: for cAMP production: Hela cells with activated Notch1 signaling (Hela-ICN1)
Experimental: (§4) Fluorescence Polarization (FP) cAMP Assay The FP cAMP assay (FPA202) was performed according to the manufacturer's protocol (PerkinElmer, Boston, Mass. 02118-2512). Briefly, ten μl of forskolin at different concentrations were added to each well, then to each well ten μl of cell suspended in Stimulation Mix (made fresh before use by mixing anti-cAMP antibody in stimulation buffer) was added. Plates were incubated 30 minutes at 37° C. Twenty μl of Detection Mix (Fluo-cAMP stock diluted in Detection Buffer) was added and continued incubation 30 minutes at 37° C. Meanwhile, the standard curve, and controls were done. The cAMP was measured by Victor Reader (PerkinElmer).

[8] = system: cAMP production in Hela-GFP cells; experiment: Fluorescence polarization (FP) cAMP assay, Hela-GFP cells; type: cell-based, Human; details: control Hela (Hela-GFP) cells
Experimental: as §4

Hela-ICN1 cells = experiment: Cell proliferation assay (MTT), Notch1-activated Hela-ICN1 cells; type: cell-based, Human
Experimental: as §1
(§5) The cell proliferation assay (Promega, Madison, Wis.) was performed as described previously in Sun et al., Bioorg Med Chem Lett, 2004, Vol. 14, pp. 2041-2046. Briefly, fifty μl of medium with or without tested compounds was added to 96-well plates. Another 50 μl of tested cancer cells (1×10^5 cells/ml) suspended in culture medium was dispensed into each well. The plates were incubated at 37° C. for 3 days. Afterward, plates were added with a 15 μl dye solution per well and incubated at 37° C. for 4 hours. To each well was then added 100 μl of the solubilization solution and the plates were incubated at 37° C. again until the contents in each well became a uniformly colored solution. The plates were measured at 570 nm by a Victor Reader (PerkinElmer).

Hela-GFP cells = experiment: Cell proliferation assay (MTT), Hela-GFP cells; type: cell-based, Human
Experimental: as §1, §5

## O=C(CCCCCCC(=O)NO)NO [SBHA, suberoyl bis-hydroxamic acid]
[1]
  cell growth suppression (MTT), in words: induced growth suppression
[2]
  cell growth suppression (MTT), in words: induced growth suppression
[3]
  cell growth suppression (MTT), in words: suppressed

## CCCC[C@@H](C=O)NC(=O)[C@H](CC(C)C)NC(=O)[C@H](CC(C)C)NC(=O)OCc1ccccc1 [NLE, Z-Leu-Leu-Nle-CHO] (Cbz-Leu-Leu-[Nle]-aldehyde)
[4]
  cell growth suppression (MTT), in words: induced cell growth arrest
[5]
  cell growth suppression (MTT), in words: induced cell growth arrest
[6]
  cell growth suppression (MTT), in words: induced cell growth arrest

## C=C[C@@]1(C)CC(=O)[C@]2(O)[C@@]3(C)[C@@H](O)CCC(C)(C)[C@@H]3[C@H](O)[C@H](OC(C)=O)[C@@]2(C)O1 [forskolin]
[7]; forskolin at 1 μM
  cAMP production: 0.05 pMol cAMP per 10^3 cells
  cAMP concentration in Hela-ICN1 cells relative to Hela-GFP cells: 10 fold
[7]; forskolin at 10 μM
  cAMP production: 0.25 pMol cAMP per 10^3 cells
  cAMP concentration in Hela-ICN1 cells relative to Hela-GFP cells: 14 fold
[7]; forskolin at 50 μM
  cAMP production: 0.46 pMol cAMP per 10^3 cells
  cAMP concentration in Hela-ICN1 cells relative to Hela-GFP cells: 19 fold
[8]; forskolin at 1 μM
  cAMP production: 0.005 pMol cAMP per 10^3 cells
[8]; forskolin at 10 μM
  cAMP production: 0.018 pMol cAMP per 10^3 cells
[8]; forskolin at 50 μM
  cAMP production: 0.024 pMol cAMP per 10^3 cells

## C[C@H](N)C(=O)NCC(=O)N[C@H]1CSSC[C@@H](C(=O)O)NC(=O)[C@H](CO)NC(=O)[C@H]([C@@H](C)O)NC(=O)[C@H](Cc2ccccc2)NC(=O)[C@H]([C@@H](C)O)NC(=O)[C@H](CCCCN)NC(=O)[C@H](Cc2c[nH]c3ccccc23)NC(=O)[C@H](Cc2ccccc2)NC(=O)[C@H](Cc2ccccc2)NC(=O)[C@H](CC(N)=O)NC(=O)[C@H](CCCCN)NC1=O [SST-14, Ala-Gly-Cys-Lys-Asn-Phe-Phe-Trp-Lys-Thr-Phe-Thr-Ser-Cys]
Hela-ICN1 cells; compound at 1 μM
  inhibition of cell growth (MTT): 2%
Hela-ICN1 cells; compound at 10 μM
  inhibition of cell growth (MTT): 8%
Hela-GFP cells; compound at 1 μM
  inhibitory rate of cell proliferation (MTT): almost no effect
Hela-GFP cells; compound at 10 μM
  inhibitory rate of cell proliferation (MTT): 28%
Hela-GFP cells; compound at 20 μM
  inhibitory rate of cell proliferation (MTT): about 40%
